Experimental data from paper PMC10539439 (Pharmacological Reports, 2023).

Assays:
[1] = Distribution in brain after ip administration; assay type: in vivo, rat; conditions: for Tmax / concentration at 5 min / concentration at 15 min / concentration at 30 min / concentration at 60 min / concentration at 120 min / concentration at 240 min: male, Wistar, rat, brain; for concentration at 5 min / concentration at 15 min / concentration at 30 min / concentration at 60 min / concentration at 120 min / concentration at 240 min: intraperitoneal, mean; for concentration at 5 min: 5 min after administration; for concentration at 15 min: 15 min after administration; for concentration at 30 min: 30 min after administration; for concentration at 60 min: 60 min after administration; for concentration at 120 min: 120 min after administration; for concentration at 240 min: 240 min after administration; for Penetration into the brain: summary table
Method: (§1) For the pharmacokinetic study, a group of 56 adult male rats (Wistar, 220–250 g, […]) were used in the experiment. Animals were purchased from the Animal House of the Faculty of Pharmacy of Jagiellonian University Medical College, Krakow, Poland. […] These were then given through an intraperitoneally injections (ip) at a dose of 0.3 mg/kg and 0.4 mg/kg, respectively. Blood samples were collected at 0 min (predose), 5 min, 15 min, 30 min, 60 min, 120 min, and 240 min after compound administration. Blood and brain samples were collected under general anesthesia induced by ip injections of 50 mg/kg ketamine plus 8 mg/kg xylazine. Blood samples were taken in heparinized tubes and immediately centrifuged at 3500 rpm for 10 min, and plasma was collected. Brain and plasma samples were immediately frozen at – 80 ℃ for LC/MS/MS analysis. All experimental procedures were carried out according to EU Directive 2010/63/EU and approved by the I Local Ethics Committee for Animal Experiments of the Jagiellonian University in Krakow, Poland (No. 94/2016).
(§2) The pharmacokinetic parameters were calculated using a non-compartmental approach from the average concentration values, using Phoenix WinNonlin software (Certara, Princeton, NJ 08540 USA). The first-order elimination rate constant (λz) was calculated by linear regression of time versus log concentration. Next, the area under the mean plasma and the concentration in the brain versus the time curve (AUC0→t) were estimated using the log-linear trapezoidal rule (Eq. 1), where Cn is the concentration of the last sampling of each compound1 AUC0→t=∑i=1n(Ci+Ci+1)/2·ti+1-ti+Cn/λz.
(§3) The quantification of compounds in plasma and brain samples was performed using the Sciex API 3200 triple quadrupole mass spectrometer (Concord, Ontario, Canada) equipped with an electrospray (ESI) ionization interface. This instrument was coupled to an Elite LaChrom (Hitachi, USA) HPLC system. Data acquisition and processing were performed using Sciex Analyst 1.5.2 data collection and integration software. After preparation, the samples were injected (20 µL) onto XBridge C18 (2.1 mm × 30 mm, 3.5 μm, Waters, Milford, Massachusetts, USA) analytical column. The mobile phase consisted of 0.1% formic acid in acetonitrile (A) and 0.1% formic acid in water (B) was delivered in a gradient elution starting with 90% of eluent B, increasing for 2 min to 90% of eluent A, maintained for 3 min, and then returned for 5 min to 90% of eluent B, and maintained 90% of eluent B during 5 min at a flow rate of 300 µL/min. The total analysis time was 10 min. […] The ion spray source settings were as follows: spray voltage: 5.5 kV, heater temperature: 400 °C, curtain gas: 10 psi, source gas 1: 20 psi, and source gas 2: 20 psi.
Further dilutions were performed using the same solvent to prepare working standard solutions of the analyte at the following concentrations: 0.025, 0.05, 0.1, 0.25, 0.5, 1.0, 2.5, 5.0, 10, 25, and 50 µg/mL for calibration curve samples (CC) and 0.025, 0.075, 2.2, and 4.5 µg/mL for quality control samples (QC). To prepare samples for calibration curve or quality control samples, 45 µL of the matrix (plasma or brain homogenate) was added with 5 µL of internal standard solution (1 µg/mL) obtaining the final concentration of 100 ng/mL and 5 µL of standard working solutions at the needed CC or QC concentration levels. After the addition of the standard solution, the samples were mixed and purified.
A sample volume of 50 µL of plasma or brain homogenate was transferred to the clean Eppendorf tube and spiked with 5 µL of IS solution (1 µg/mL) obtaining the final concentration of 100 ng/mL. After 5 min of mixing (1500 rpm) proteins were precipitated using 200 µL ACN. After 10 min of sample shaking (1500 rpm), the incubation step was performed (10 min, 4 °C). The samples were then centrifuged (10,000 rpm, 10 min, 4 °C) and the supernatant was transferred to chromatographic vials for LC/MS/MS analysis.

[2] = Pharmacokinetics in plasma after ip administration; assay type: in vivo, rat; conditions: for concentration at 5 min / concentration at 15 min / concentration at 30 min / concentration at 60 min / concentration at 120 min / concentration at 240 min / CL/F / Tmax / Vd/F / half-life: male, Wistar, plasma; for concentration at 5 min / concentration at 15 min / concentration at 30 min / concentration at 60 min / concentration at 120 min / concentration at 240 min / CL/F / Tmax / Vd/F / half-life / volume of distribution: rat; for concentration at 5 min / concentration at 15 min / concentration at 30 min / concentration at 60 min / concentration at 120 min / concentration at 240 min: intraperitoneal, mean; for concentration at 5 min: 5 min after administration; for concentration at 15 min: 15 min after administration; for concentration at 30 min: 30 min after administration; for concentration at 60 min: 60 min after administration; for concentration at 120 min: 120 min after administration; for concentration at 240 min: 240 min after administration; for CL/F / Tmax / Vd/F / half-life / t0.5 terminal half-life / volume of distribution: ip; for half-life / t0.5 terminal half-life: rat plasma; for half-life / t0.5 terminal half-life / volume of distribution: Guanabenz 0.3 mg/kg, 4-OH-Guanabenz 0.4 mg/kg; for half-life: read-out: t0.5 terminal half-life
Method: as §1, with “Poland. During the habituation period, the groups of 4 rats were kept in a plastic cage at a controlled room temperature (22 ± 2 ℃), humidity (55 ± 10%), full-spectrum cold white light (350–400 lx), in 12 h light/dark cycles (the lights on at 7:00 am, and off at 19:00 pm), and had free access to standard laboratory pellet and tap water.” for “Poland.”
as §2
The area under the first-moment curve (AUMC0→t) was estimated by calculating of the total area under the first-moment curve using Eq. 2, where tn is the time of last sampling2 AUMC0→t=∑i=1n(ti·Ci+ti+1·Ci+1)/2·ti+1-ti+(tn·Cn)/λz+Cn/λz2.
Mean residence time (MRT, Eq. 3) was calculated as3 MRT=AUMC0→t/AUC0→t.
Total clearance (ClT, Eq. 4) was calculated as4 C1T=F·Di.p./AUC0→t.
as §3
Further dilutions were performed using the same solvent to prepare working standard solutions of the analyte at the following concentrations: 0.025, 0.05, 0.1, 0.25, 0.5, 1.0, 2.5, 5.0, 10, 25, and 50 µg/mL for calibration curve samples (CC) and 0.025, 0.075, 2.2, and 4.5 µg/mL for quality control samples (QC). […]

[3] = rat brain, ip, Guanabenz 0.3 mg/kg, 4-OH-Guanabenz 0.4 mg/kg

Row | Structure (SMILES) | Tmax ([1]; ip) [h] | concentration at 5 min [1] [ng/g] | concentration at 15 min [1] [ng/g] | concentration at 30 min [1] [ng/g] | concentration at 60 min [1] [ng/g] | concentration at 120 min [1] [ng/g] | concentration at 240 min [1] [ng/g] | t0.5 [1, 3] [min] | Penetration into the brain [1] | concentration at 5 min [2] [ng/mL] | concentration at 15 min [2] [ng/mL] | concentration at 30 min [2] [ng/mL] | concentration at 60 min [2] [ng/mL] | concentration at 120 min [2] [ng/mL] | concentration at 240 min [2] [ng/mL] | CL/F [2] [mL/min/kg] | Tmax [2] [h] | Vd/F [2] [L/kg] | half-life [2] [h] | t0.5 terminal half-life [2] [h] | further results
1 | N=C(N)N/N=C/c1c(Cl)cccc1Cl [Guanabenz] | 1 | 45.6 | 110 | 164 | 183 | 92.5 | 58.6 | 116.1 | Good | 10.2 | 91.2 | 95.1 | 14.2 | 26.1 | 8.53 | 13.5 | 0.5 | 1.61 | ~1.38 | 1.38 | Tmax ([1]; ip, 0.3 mg/kg): ≤ 1 h; volume of distribution [2]: 1.6 L/kg
2 | Cl.N=C(N)NN=Cc1c(Cl)cc(O)cc1Cl [4-OH-Guanabenz, 2-[(2,6-Dichloro-4-hydroxyphenyl)methylene]hydrazinecarboximidamide Hydrochloride] | 0.25 | 13.3 | 64.5 | 23.9 | 4.54 | 3.94 | 3.2 | 112.7 | Poor | 54.3 | 101 | 20.2 | 41.9 | 8.65 | 6.52 | 17.7 | 0.25 | 1.75 | ~1.15 | 1.14 | AUC0→t [1, 3]: 2573 ng ⋅ min/g; volume of distribution [2]: 1.7 L/kg
